Test results: patent US20140294849A1, “COMPOSITIONS AND USES” (GLAXOSMITHKLINE BIOLOGICALS SA, priority 2011, published 2014)
Like-named read-outs stand apart in the source and are kept apart here. No end group written: not given here.

What was measured:
[1] = test system: cytokines and chemokines in sera; format: in vivo, C57BL/6 mice; details: for levels of TNF-α and IL-6: i.p.
Procedure: Mice (n=5) received 50 μl of adjuvant formulations by i.m. injection for the PBS, AS03, AS01B and AS04D. PBS or LPS or MPL were injected using the intraperitoneal route and sera were collected at 2 and 6 h time points. Whole blood was collected by cardiac puncture from mice and centrifuged on a vacutainer blood collection tube containing gel for serum separation. Serum samples were cleared by centrifugation and stored at −80° C. until analysis. Protein levels in the cleared sera samples were measured by cytokine-specific beads (Millipore, USA) using the Luminex™ platform.
To determine whether the low inflammatory response observed in the previous in vitro experiments can be reproduced in vivo, we measured several cytokines and chemokines in the sera of C57BL/6 mice 2 and 6 h following a single intraperitoneal injection of either MPL or LPS. […] Noteworthy, IL-1β is not increased in response to MPL in contrast to LPS treatment.

[2] = test system: spatial learning and memory; assay: T-water maze in APP/PS1 mice; format: in vivo, APPSwe/PS1 mice; details: for behaviour as assessed by T water maze testing: Example 21, twelve weekly injections, vs non treated mice; for cognitive functions, T-water maze: Example 22, vs PBS
Procedure: Five groups of APPSwe/PS1 mice received one a week for a period of 12 weeks the following treatment: • Gr1: APPSwe/PS1+NaCl 0.9% n(=20), i.p. injections • Gr4: APPSwe/PS1+CRX527 (20 μg/mouse, 130 μl, n=10), i.p. injections • Gr5: […] (50 μg/mouse, 130 μl, n=10), i.p. injections • Gr8 APPSwe/PS1+AS15 ( 1/10th of human dose, 50 μl, n=10), i.m. injections • Gr9: APPSwe/PS1+AS01B ( 1/10th of human dose, 50 μl, n=10), i.m. injections
Mice were tested during the “light on” phase of the day. Behavioral experimenter was blinded to the genetic and treatment status of animals. To assess hippocampal-dependent spatial learning and memory, mice were trained in the T-water maze task. In this paradigm, we evaluate the mouse's ability to remember the spatial location of submerged platform. The T-maze apparatus (length of stem, 64 cm; length of arms, 30 cm; width, 12 cm; height of walls, 16 cm) was made of clear fiberglass and filled with water (23±1° C.) at a height of 12 cm. A platform (11×11 cm) was placed at the end of the target arm and was submerged 1 cm below the surface. The acquisition phase allows to evaluate animals for left-right spatial learning. During the first two trials, platforms were placed on each arms of the maze to test the spontaneous turning preference of the mouse. After these two trials, the least chosen arm was reinforced by the escape platform. The mice were placed in the stem of the T-maze and choose to swim either left or right until they found the submerged platform and escape to it, to a maximum of 60 s. After reaching the platform, the mice remained on it for 20 s and then were immediately placed back in the maze. […] Repeated trials were presented on the same day up to a maximum of 48 trials. A rest period of at least 10-15 min intervened between each block of 10 trials. A mouse was considered to have learned the task when it made no errors in a block of five consecutive trials. The reversal learning phase was then conducted 48 h later. During this phase, the same protocol was repeated, except that the mice were trained to find the escape platform on the opposite side to that on which they had learned on acquisition phase. The number of trials to reach the criterion (five of five correct choices made on consecutive trials) was measured as well as the latency to find the escape platform.

Aβ plaques = assay: Aβ total plaque loading, stereological analysis of brain sections; format: in vivo, APPSwe/PS1 mice
[3] = test system: Lineage-CD11b+ monocytes in peripheral blood; assay: Monocyte analysis and counting after adjuvant injection in mice; format: in vivo, C57BL/6 mice
Procedure: (§1) 24-Hours after injection of the TLR adjuvants, peripheral blood was drawn from C57BL/6 mice via cardiac puncture with lithium-heparin as anticoagulant. Red blood cell lysis was performed twice on pooled blood with Ammonium Chloride-based Buffer (Sigma, Steinheim, Germany) and cells were counted with the EasyCount™ System (Immunicon). […] Cells were finally washed three times and fixed for 15 min. with a 2% paraformaldehyde solution in PBS. Fluorescence minus one (FMO) controls were always included in the assays for fluorescent compensation setting. Samples were acquired on a flow cytometer (BD FACSCanto II) and data analyzed with the FACSDiva software (BD Biosciences). Monocytes were identified by their Side/Forward scatter properties and gated as CD3-/CD45R/B220-/Ly-6G-/NK1.1-(Lineage-)/CD11b+ cells. CD11b+ monocyte frequency was reported as a percentage of the total cells excluding debris.
as §1, with “24 hours” for “24-Hours”, “each immunomodulator,” for “the TLR adjuvants,”, “min” for “min.”, “monocytes” for “monocyte”
Cells were finally washed twice and fixed for 15 min. with a 2% paraformaldehyde solution in PBS. FMOs controls were always included in the assays. Samples were acquired on a flow cytometer (BD FACSCanto II) and data analyzed with the FACSDiva software (BD Biosciences). Monocytes were identified and counted by their Side/Forward scatter properties, excluding debris and gated as CD3-/CD45R/B220-/Ly-6G-/NK1.1-(Lineage-)/CD11 b+ cells.

[4] = test system: human microglial cell line CHME; assay: Phagocytosis of beta-amyloid 1-42 peptide by CHME cells; format: cell-based; details: Example 18
Procedure: Phagocytosis of beta-amyloid 1-42 peptide by the human microglial cell line CHME was observed after the addition of TLR2 agonist containing adjuvants Protollin and Pam3CysLip peptide. […] The synthetic peptide sequence of the Pam3Cys Lip peptide is described herein: Pam3Cys—SQ EPAAPAAEAT PAAEAP. Protollin was used at concentration 1 ug per ml based on the LPS content from Shigella flexneri. Pam3Cys lip peptide was used at concentration of 5 ug per ml of the pure tri-palmitoylated peptide.
Additionally, cells were imaged using 42 HiLyte 488 Fluo (Anaspec, Inc.) at 2 ug per ml in DMEM complete media (Invitrogen). Lysotracker red staining was performed and slides were mounted and co-stained with DAPI to show the nucleus (blue). […] Lysotracker red reagent was purchased from Invitrogen and used as manufacturer recommendations.

[5] = test system: CD11b+ peripheral blood monocytes; assay: Ex vivo uptake assay of Aβ1-42; format: cell-based, C57BL/6 mice; details: Example 19, FIG. 20; QS21 5 μg i.m.
Procedure: Preparation of cells: Peripheral blood was drawn from C57BL/6 mice via cardiac puncture with lithium-heparin as anticoagulant, 24-hours after injection of the adjuvants used herein. Red blood cell lysis was performed twice on pooled blood with Ammonium Chloride-based Buffer (Sigma, Steinheim, Germany) and cells were counted with the EasyCount™ System (Immunicon). […]
FACS analysis: cells were harvested after incubation with fluorescent Aβ peptide with Trypsin/EDTA and cold PBS and washed three times. 500,000 cells were incubated in 96-well plate for 10 min. on ice in the presence of Rat anti-Mouse CD16/CD32 (clone 2.4G2—BD Fc Block™) and further stained for 30 min. with a combination of the following directly conjugated antibodies at their pre-determined optimal concentration: PE-Hamster anti-Mouse CD3 (clone 145-2C11), Rat anti-Mouse CD45R/B220 (clone RA3-6B2), Rat anti-Mouse Ly-6G (clone 1A8), Mouse anti-Mouse NK1.1 (clone PK136), APC-conjugated Rat anti-Mouse CD11b (clone M1/70), PE-Cy7-conjugated Hamster anti-Mouse CD11c (clone HL3), (all from BD PharMingen). […]
Samples were acquired on a flow cytometer (BD FACSCanto II) and data analyzed with the FACSDiva software (BD Biosciences). […]

In the case of “3-O-desacyl-4′-monophosphoryl lipid A [3D MPL]”, the “levels of TNF-α and IL-6” value ([1]; 2 h post injection) is reported as “modest increase”, the innate cytokine profile ([1]; Example 28, 3D MPL i.p., AS01B i.m., data not shown) is reported as “attenuated cytokine profile compared to LPS” and the “most of the cytokine and chemokine levels” value ([1]; Example 28, single intraperitoneal injection, 2 and 6 h) is reported as “substantially lower than those of LPS-treated animals”. The “levels of TNF-α and IL-6” value ([1]; after 6 h) was “essentially abolished”, the IL-1β ([1]; single i.p. injection, in contrast to LPS) was “not increased” and the “T-water tests, combined data of Example 21 and 22” value ([2]; ANOVA-2 tests, FIG. 27C) was “statistical significance”. The “behaviour as assessed by T water maze testing” value [2] was “significant improvements in behaviour”, the “cognitive functions, T-water maze” value ([2]; i.m. 12x weekly, CRX601 2 μg, CRX601 2 ug in AS03, 3D MPL 5 ug, AS01B 1/10 human dose, unpaired t-tests) was “significant improvement of their cognitive functions” and the “cognitive functions, T-water maze” value ([2]; intra peritoneal 50 ug per mouse, 12x weekly) was “significant improvement of their cognitive functions”. The “plaque loading, combined data of Example 21 and 22” value (Aβ plaques; ANOVA-2, P<0.01, intra peritoneal) was “statistical significant plaque loading reduction”, the “brain histology of amyloid plaques” value (Aβ plaques; Example 21, FIG. 26, immunofluorescence 6E10) was “more compacted plaques with less total area” and the “Amyloid beta plaque number” value (Aβ plaques; Example 21, 50 μg/mouse i.p., once a week for 12 weeks) was “statistically significant reduction in Amyloid beta plaque number”. The “Aβ amyloid plaque level in the brain” value (Aβ plaques; Example 22, FIG. 27B, intra peritoneal route) was “trend of reducing the Aβ amyloid plaque”, the “number of CD11b+ monocytes compared to the PBS control” value ([3]; Example 9, 5 ug/mouse, i.m.) was “about double” and the monocyte numbers ([3]; Example 10, single i.m. injection, at 5 and 25 ug/mouse dose) was “stimulate monocyte numbers”.

In the case of CCCCCCCCCCC[C@H](CC(=O)N[C@H]1[C@H](OC[C@H](NC(=O)C[C@@H](CCCCCCCCCCC)OC(=O)CCCCCCCCC)C(=O)O)O[C@H](CO)[C@@H](OP(=O)(O)O)[C@@H]1OC(=O)C[C@@H](CCCCCCCCCCC)OC(=O)CCCCCCCCC)OC(=O)CCCCCCCCC [CRX527], the “behaviour as assessed by T water maze testing” value [2] is reported as “significant improvements in behaviour”.

“Pam3Cys—SQ EPAAPAAEAT PAAEAP (Pam3Cys-SQEPAAPAAEATPAAEAP) [Pam3CysLip peptide, TLR2 agonist, tri-palmitoylated peptide]” was tested, and the phagocytosis ([4]; 5 ug per ml, pre-incubation 18 hrs) was 86 % of cells and the amyloid phagocytic activity ([4]; compared to PBS, Protollin 1 ug per ml, Pam3Cys lip peptide 5 ug per ml) was “higher amyloid phagocytic activity”.

With QS21 [reference compound] the “activated Ly6C+ monocytes” value ([3]; Example 19, single i.m. injection, 24 hrs) was 75%, the number of monocytes ([3]; Example 19, single i.m. injection, after 24 hrs, QS21 5 μg) was 9.1 % of total peripheral white blood cells and the “Aβ uptake by peripheral blood monocytes” value [5] was “does not promote Aβ uptake”.
